Results taken from PMC9151520 (Archives of Toxicology, 2022).
Structures can show the parent of a compound that is named as a salt. Where two headings read alike, the source gives them in different places.

What was measured:
[1] = test system: p53 signaling (p53RE-bla HCT-116 cells)
[2] = test system: p53 signaling (p53RE-bla HCT-116 cells); remark: listed apart in the source
[3] = test system: p53 signaling (p53RE-bla HCT-116 cells); assay: cells; conditions: Homo sapiens
[4] = test system: p53 signaling (p53RE-bla HCT-116 cells); assay: cells; type: cell-based
[5] = HCT-116, read-out: EC50, p53 activation, primary screening
[6] = Homo sapiens, HCT-116, read-out: EC50, p53 activation, cherry pick confirmation
[7] = Homo sapiens, HCT-116, read-out: EC50, p53 activation, primary screening
[8] = Homo sapiens, HCT-116, read-out: Efficacy, p53 activation, cherry pick confirmation
[9] = HCT-116, read-out: p53 activation EC50, cherry pick confirmation
[10] = HCT-116, read-out: p53 activation efficacy, cherry pick confirmation
[11] = HCT-116, read-out: Efficacy, p53 activation, cherry pick confirmation
[12] = HCT-116, read-out: Efficacy, p53 activation, primary screening
[13] = Homo sapiens, HCT-116, read-out: Efficacy, p53 activation, primary screening
[14] = HCT-116, read-out: p53 activation EC50, primary screening
[15] = HCT-116, read-out: p53 activation efficacy, primary screening

Compound	EC50, p53 activation, cherry pick confirmation [2]	EC50, p53 activation, primary screening [2]	Efficacy, p53 activation, cherry pick confirmation [2]	Efficacy, p53 activation, primary screening [2]	p53 activation EC50, cherry pick confirmation [2]	p53 activation efficacy, cherry pick confirmation [2]	Viability EC50, cherry pick confirmation (p53RE-bla HCT-116 cells)	Viability EC50, primary screening (p53RE-bla HCT-116 cells)	Viability efficacy, cherry pick confirmation (p53RE-bla HCT-116 cells)	Viability efficacy, primary screening (p53RE-bla HCT-116 cells)	p53 activation EC50, cherry pick confirmation [4]	p53 activation EC50, primary screening [4]	p53 activation efficacy, cherry pick confirmation [4]	p53 activation efficacy, primary screening [4]	p53 activation EC50, cherry pick confirmation [1]	p53 activation efficacy, cherry pick confirmation [1]	p53 activation EC50, primary screening [2]	p53 activation efficacy, primary screening [2]	EC50 [3, 14]	Emax [3, 15]	also measured
CCCCCCNC(=O)n1cc(F)c(=O)[nH]c1=O [Carmofur]	inactive	inactive	inactive	inactive																	EC50, p53 activation, cherry pick confirmation [1]: inactive; Efficacy, p53 activation, cherry pick confirmation [1]: inactive; EC50, viability, cherry pick confirmation (p53RE-bla HCT-116 cells): inactive; EC50, viability, primary screening (p53RE-bla HCT-116 cells): inactive; Efficacy, viability, cherry pick confirmation (p53RE-bla HCT-116 cells): inactive; Efficacy, viability, primary screening (p53RE-bla HCT-116 cells): inactive; EC50 [3, 5]: 2.11 µM; EC50 [4, 6]: 17.8 µM; EC50 [4, 7]: 2.97 µM; Emax [4, 8]: 121%
COP(=O)(OC)O/C(=C\Cl)c1cc(Cl)c(Cl)cc1Cl [Z-Tetrachlorvinphos]					inactive	inactive	inactive	inactive	inactive	inactive	inactive	inactive	inactive	inactive							EC50 [3, 9]: 31.6 µM; Emax [3, 10]: 115%
COc1cc([C@@H]2c3cc4c(cc3[C@@H](O[C@@H]3O[C@@H]5CO[C@@H](C)O[C@H]5[C@H](O)[C@H]3O)[C@H]3COC(=O)[C@H]23)OCO4)cc(OC)c1O [etoposide, reference compound]	inactive	inactive	inactive	inactive																	p53 induction in the presence of microsomes compared with absence of microsomes [1]: inactivity or lower activity; EC50, viability, cherry pick confirmation (p53RE-bla HCT-116 cells): inactive; EC50, viability, primary screening (p53RE-bla HCT-116 cells): inactive; Efficacy, viability, cherry pick confirmation (p53RE-bla HCT-116 cells): inactive; Efficacy, viability, primary screening (p53RE-bla HCT-116 cells): inactive; EC50 [3, 5]: 0.888 µM; Emax [3, 11]: 32.9%; Emax [3, 12]: 22.1%; EC50 [4, 7]: 1.33 µM; Emax [4, 8]: 72.1%; Emax [4, 13]: 62.9%
O=C1OC(O)C(Cl)=C1Cl (stereo not drawn) [Mucochloric acid]					inactive	inactive	inactive	inactive	inactive	inactive		inactive		inactive	inactive	inactive	inactive	inactive	49.4 µM	51.8%	EC50 ([4]; Homo sapiens, HCT-116, read-out: p53 activation EC50, cherry pick confirmation): 15.9 µM; Emax ([4]; Homo sapiens, HCT-116, read-out: p53 activation efficacy, cherry pick confirmation): 180%
C=CC1(C)OC(=O)N(c2cc(Cl)cc(Cl)c2)C1=O (stereo not drawn) [Vinclozolin]					inactive	inactive	inactive	inactive	inactive	inactive	inactive	inactive	inactive	inactive	inactive	inactive	inactive	inactive	16.9 µM	39.4%	
Nc1ccn([C@@H]2O[C@H](CO)[C@@H](O)[C@@H]2O)c(=O)n1 [Cytarabine]	inactive	inactive	inactive	inactive																	EC50, viability, cherry pick confirmation (p53RE-bla HCT-116 cells): inactive; EC50, viability, primary screening (p53RE-bla HCT-116 cells): inactive; Efficacy, viability, cherry pick confirmation (p53RE-bla HCT-116 cells): inactive; Efficacy, viability, primary screening (p53RE-bla HCT-116 cells): inactive; EC50 ([3]; HCT-116, read-out: EC50, p53 activation, cherry pick confirmation): 0.903 µM; Emax [3, 11]: 33.4%; Emax [3, 12]: 31.7%; EC50 [4, 6]: 0.913 µM; Emax [4, 8]: 96.4%; Emax [4, 13]: 83.8%
CCN(C)C(=O)Oc1cccc([C@H](C)N(C)C)c1 [Rivastigmine tartrate]					inactive	inactive	inactive	inactive	inactive	inactive	inactive	inactive	inactive	inactive							EC50 [3, 9]: 8.41 µM; Emax [3, 10]: 32.8%
CC(O)CN(CC(C)O)CC(C)O (stereo not drawn) [Triisopropanolamine]					inactive	inactive	inactive	inactive	inactive	inactive	inactive	inactive	inactive	inactive	inactive	inactive	inactive	inactive	37 µM	40%	
c1ccc2c(c1)c1cccc3ccc4cccc2c4c31 [Benzo(e)pyrene]					inactive	inactive	inactive	inactive	inactive	inactive	inactive		inactive		inactive	inactive	inactive	inactive	20.1 µM	48.3%	EC50 ([4]; Homo sapiens, HCT-116, read-out: p53 activation EC50, primary screening): 36.3 µM; Emax ([4]; Homo sapiens, HCT-116, read-out: p53 activation efficacy, primary screening): 104%
O=c1[nH]cc(F)c(=O)[nH]1 [5-Fluorouracil]	inactive	inactive	inactive	inactive																	EC50, p53 activation, cherry pick confirmation [1]: inactive; Efficacy, p53 activation, cherry pick confirmation [1]: inactive; EC50, viability, cherry pick confirmation (p53RE-bla HCT-116 cells): inactive; EC50, viability, primary screening (p53RE-bla HCT-116 cells): inactive; Efficacy, viability, cherry pick confirmation (p53RE-bla HCT-116 cells): inactive; Efficacy, viability, primary screening (p53RE-bla HCT-116 cells): inactive; EC50 [3, 5]: 3.79 µM; EC50 [4, 6]: 21.2 µM; EC50 [4, 7]: 5.93 µM; Emax [4, 8]: 98.3%
CCCCOCCOP(=O)(OCCOCCCC)OCCOCCCC [Tris(2-butoxyethyl) phosphate]					inactive	inactive	inactive	inactive	inactive	inactive	inactive	inactive	inactive	inactive	inactive	inactive	inactive	inactive	35.1 µM	48.7%	
CNC(=O)Oc1cc(C)cc(C(C)C)c1 [Promecarb]					inactive	inactive	inactive	inactive	inactive	inactive	inactive	inactive	inactive	inactive							EC50 [3, 9]: 20 µM; Emax [3, 10]: 40.2%
Nc1ccc2cc3ccc(N)cc3nc2c1.Nc1ccc2cc3ccc(N)cc3nc2c1.O=S(=O)(O)O [Proflavin hemisulfate]					inactive	inactive	inactive	inactive		inactive			364.531	180.344	inactive	inactive	inactive	inactive			p53 activation EC50, primary screening [1]: inactive; p53 activation efficacy, primary screening [1]: inactive; EC50 (p53RE-bla HCT-116 cells; read-out: Viability EC50, cherry pick confirmation): 17.8 µM; EC50 ([4]; read-out: p53 activation EC50, cherry pick confirmation): 5.5 µM; EC50 ([4]; read-out: p53 activation EC50, primary screening): 4.88 µM
